According to ChEMBL document CHEMBL5247641, “Discovery of Potent DYRK2 Inhibitors with High Selectivity, Great Solubility, and Excellent Safety Properties for the Treatment of Prostate Cancer” (J Med Chem, 2023):
pIC50: −log10 of the molar value. Calls of active or inactive are those of the source. The calls are words filed in the database; no cut-off is given here.

Key:
[1] = Acute toxicity in ICR mouse assessed as appearance of lesions in liver at 5000 to 10000 mg/kg,po and measured after 14 days by H and E staining based microscopic analysis; type: organism-based; conditions: in vivo, 336 h, dose 5000-10000 mg/kg, time 14 day
DU-145 [2] = assay: Antitumor activity against human DU-145 xenografted in BALB/c nude mouse as upregulation of E-cadherin level in tumor at 100 to 200 mg/kg,po administrated once daily for 21 days by Western blot analysis; type: functional, organism-based; conditions: dose 100-200 mg/kg, time 21.0 day
CWR22R [3] = assay: Antiproliferative activity against human 22Rv1 cells assessed as cell growth inhibition at 2 to 8 uM incubated for 5 days by microplate reader analysis; type: functional, cell-based; conditions: dose 2-8 µM, time 5.0 day
DU-145 [4] = assay: Induction of apoptosis in human DU-145 cells assessed as apoptotis rate at 4 uM incubated for 24 hrs by Annexin V-FITC and PI staining based flow cytometry (Rvb= 4.36%); type: functional
DU-145 [5] = assay: Induction of cell cycle arrest in human DU-145 cells assessed as accumulation of cells at G2 phase at 2 uM incubated for 24 hrs by propidium iodide based flow cytometric analysis (Rvb= 17.52%); type: functional
CWR22R [6] = assay: Antiproliferative activity against human 22Rv1 cells assessed as inhibition of clone formation at 1 to 8 uM incubated for 2 weeks by crystal violet staining based assay; type: functional, cell-based; conditions: dose 1-8 µM
DU-145 [7] = assay: Induction of cell cycle arrest in human DU-145 cells assessed as accumulation of cells at G2 phase at 1 uM incubated for 24 hrs by propidium iodide based flow cytometric analysis (Rvb= 17.52%); type: functional
DU-145 [8] = assay: Antiproliferative activity against human DU-145 cells assessed as cell growth inhibition at 2 to 8 uM incubated for 5 days by microplate reader analysis; type: functional, cell-based; conditions: dose 2-8 µM, time 5.0 day
[9] = Acute toxicity in ICR mouse assessed as appearance of lesions in kidney at 5000 to 10000 mg/kg,po and measured after 14 days by H and E staining based microscopic analysis; type: organism-based; conditions: in vivo, 336 h, dose 5000-10000 mg/kg, time 14 day
[10] = Acute toxicity in ICR mouse assessed as abnormal body weight change at 1000 to 10000 mg/kg,po and measured upto 14 days; type: organism-based; conditions: in vivo, 336 h, dose 1000-10000 mg/kg, time < 14 day
CWR22R [11] = assay: Induction of apoptosis in human 22Rv1 cells assessed as increase in p53 level at 2 to 8 uM incubated for 24 hrs by Western blot analysis; type: functional, cell-based; conditions: dose 2-8 µM
DU-145 [12] = assay: Antitumor activity against human DU-145 xenografted in BALB/c nude mouse as inhibition of tumor cell proliferation at 100 to 200 mg/kg,po administrated once daily for 21 days by Ki67 staining based microscopic analysis; type: functional, organism-based; conditions: dose 100-200 mg/kg, time 21.0 day
DU-145 [13] = assay: Induction of apoptosis in human DU-145 cells assessed as apoptotis rate at 2 uM incubated for 24 hrs by Annexin V-FITC and PI staining based flow cytometry (Rvb= 4.36%); type: functional
DU-145 [14] = assay: Antiproliferative activity against human DU-145 cells assessed as reduction in c-Myc expression level at 2 to 8 uM incubated for 24 hrs by Western blot analysis; type: functional, cell-based; conditions: dose 2-8 µM
[15] = Acute toxicity in ICR mouse assessed as appearance of lesions in spleen at 5000 to 10000 mg/kg,po and measured after 14 days by H and E staining based microscopic analysis; type: organism-based; conditions: in vivo, 336 h, dose 5000-10000 mg/kg, time 14 day
DU-145 [16] = assay: Antiproliferative activity against human DU-145 cells assessed as inhibition of cell proliferation incubated for 3 days by CCK-8 assay; type: functional, cell-based; conditions: DU-145, 72 h
DU-145 [17] = assay: Antitumor activity against human DU-145 xenografted in BALB/c nude mouse assessed as tumor growth inhibition at 100 mg/kg,po qd for 21 days; type: functional, organism-based; conditions: time 21.0 day
DU-145 [18] = assay: Induction of cell cycle arrest in human DU-145 cells assessed as accumulation of cells at S phase at 4 uM incubated for 24 hrs by propidium iodide based flow cytometric analysis (Rvb= 29.02%); type: functional
DU-145 [19] = assay: Antitumor activity against human DU-145 xenografted in BALB/c nude mouse as upregulation of p27 level in tumor at 100 to 200 mg/kg,po administrated once daily for 21 days by Western blot analysis; type: functional, organism-based; conditions: dose 100-200 mg/kg, time 21.0 day
CWR22R [20] = assay: Antimigratory activity against human 22Rv1 cells assessed as upregulation of E-cadherin expression level at 2 to 8 uM incubated for 24 hrs by Western blot analysis; type: functional, cell-based; conditions: dose 2-8 µM
DU-145 [21] = assay: Induction of apoptosis in human DU-145 cells assessed as increase in p53 level at 2 to 8 uM incubated for 24 hrs by Western blot analysis; type: functional, cell-based; conditions: dose 2-8 µM
CWR22R [22] = assay: Induction of cell cycle arrest in human 22Rv1 cells assessed as accumulation of cells at S phase at 1 uM incubated for 24 hrs by propidium iodide based flow cytometric analysis (Rvb=20.51 %); type: functional
CWR22R [23] = assay: Induction of apoptosis in human 22Rv1 cells assessed as apoptotis rate at 4 uM incubated for 24 hrs by Annexin V-FITC and PI staining based flow cytometry (Rvb= 3.08%); type: functional
CWR22R [24] = assay: Induction of apoptosis in human 22Rv1 cells assessed as increase in cleaved PARP level at 2 to 8 uM incubated for 24 hrs by Western blot analysis; type: functional, cell-based; conditions: dose 2-8 µM
CWR22R [25] = assay: Induction of cell cycle arrest in human 22Rv1 cells assessed as accumulation of cells at G2 phase at 4 uM incubated for 24 hrs by propidium iodide based flow cytometric analysis (Rvb=24.21 %); type: functional
[26] = Acute toxicity in ICR mouse assessed as change in spleen weight at 1000 to 10000 mg/kg,po and measured after 14 days; type: organism-based; conditions: in vivo, 336 h, dose 1000-10000 mg/kg, time 14 day
CWR22R [27] = assay: Induction of apoptosis in human 22Rv1 cells assessed as apoptotis rate at 2 uM incubated for 24 hrs by Annexin V-FITC and PI staining based flow cytometry (Rvb= 3.08%); type: functional
CWR22R [28] = assay: Induction of apoptosis in human 22Rv1 cells assessed as apoptotis rate at 8 uM incubated for 24 hrs by Annexin V-FITC and PI staining based flow cytometry (Rvb= 3.08%); type: functional
DU-145 [29] = assay: Antitumor activity against human DU-145 xenografted in BALB/c nude mouse as upregulation of p53 level in tumor at 100 to 200 mg/kg,po administrated once daily for 21 days by Western blot analysis; type: functional, organism-based; conditions: dose 100-200 mg/kg, time 21.0 day
[30] = Acute toxicity in ICR mouse assessed as change in heart weight at 1000 to 10000 mg/kg,po and measured after 14 days; type: organism-based; conditions: in vivo, 336 h, dose 1000-10000 mg/kg, time 14 day
CWR22R [31] = assay: Induction of cell cycle arrest in human 22Rv1 cells assessed as accumulation of cells at S phase at 4 uM incubated for 24 hrs by propidium iodide based flow cytometric analysis (Rvb=20.51 %); type: functional
DU-145 [32] = assay: Antiproliferative activity against human DU-145 cells assessed as increase in p27 expression level at 2 to 8 uM incubated for 24 hrs by Western blot analysis; type: functional, cell-based; conditions: dose 2-8 µM
CWR22R [33] = assay: Induction of cell cycle arrest in human 22Rv1 cells assessed as accumulation of cells at G1 phase at 1 uM incubated for 24 hrs by propidium iodide based flow cytometric analysis (Rvb= 55.28%); type: functional
[34] = Acute toxicity in ICR mouse assessed as change in liver weight at 1000 to 10000 mg/kg,po and measured after 14 days; type: organism-based; conditions: in vivo, 336 h, dose 1000-10000 mg/kg, time 14 day

## Cl.O=C(c1ccc(Nc2ncc(F)c(-c3ccc4scnc4c3)n2)nc1)N1CCNCC1
[1]
  Activity: Non-Toxic
DU-145 [2]
  Activity: Active
CWR22R [3]
  Activity: Active
DU-145 [4]
  Activity: 7.86%
DU-145 [5]
  Activity: 12.78%
CWR22R [6]
  Activity: Active
DU-145 [7]
  Activity: 17.18%
DU-145 [8]
  Activity: Active
[9]
  Activity: Non-Toxic
[10]
  Activity: Non-Toxic
CWR22R [11]
  Activity: Active
DU-145 [12]
  Activity: Active
DU-145 [13]
  Activity: 6.73%
DU-145 [14]
  Activity: Active
[15]
  Activity: Non-Toxic
DU-145 [16]
  pIC50: 5.90
DU-145 [17]
  Activity: Active
DU-145 [18]
  Activity: 19.37%
DU-145 [19]
  Activity: Active
CWR22R [20]
  Activity: Active
DU-145 [21]
  Activity: Active
CWR22R [22]
  Activity: 16.48%
CWR22R [23]
  Activity: 21.78%
CWR22R [24]
  Activity: Active
CWR22R [25]
  Activity: 19.42%
[26]
  Activity: Non-Toxic
CWR22R [27]
  Activity: 11.25%
CWR22R [28]
  Activity: 24.04%
DU-145 [29]
  Activity: Active
[30]
  Activity: Non-Toxic
CWR22R [31]
  Activity: 13.85%
DU-145 [32]
  Activity: Active
CWR22R [33]
  Activity: 60.51%
[34]
  Activity: Non-Toxic
